We go through 28 molecules from ChEMBL document CHEMBL2311532, “Identification of benzofuran central cores for the inhibition of leukotriene A(4) hydrolase” (Bioorg Med Chem Lett, 2013).

The target of data set [1] is T1, Leukotriene A-4 hydrolase (Homo sapiens, UniProt P09960).
T1 sequence (P09960 whole entry): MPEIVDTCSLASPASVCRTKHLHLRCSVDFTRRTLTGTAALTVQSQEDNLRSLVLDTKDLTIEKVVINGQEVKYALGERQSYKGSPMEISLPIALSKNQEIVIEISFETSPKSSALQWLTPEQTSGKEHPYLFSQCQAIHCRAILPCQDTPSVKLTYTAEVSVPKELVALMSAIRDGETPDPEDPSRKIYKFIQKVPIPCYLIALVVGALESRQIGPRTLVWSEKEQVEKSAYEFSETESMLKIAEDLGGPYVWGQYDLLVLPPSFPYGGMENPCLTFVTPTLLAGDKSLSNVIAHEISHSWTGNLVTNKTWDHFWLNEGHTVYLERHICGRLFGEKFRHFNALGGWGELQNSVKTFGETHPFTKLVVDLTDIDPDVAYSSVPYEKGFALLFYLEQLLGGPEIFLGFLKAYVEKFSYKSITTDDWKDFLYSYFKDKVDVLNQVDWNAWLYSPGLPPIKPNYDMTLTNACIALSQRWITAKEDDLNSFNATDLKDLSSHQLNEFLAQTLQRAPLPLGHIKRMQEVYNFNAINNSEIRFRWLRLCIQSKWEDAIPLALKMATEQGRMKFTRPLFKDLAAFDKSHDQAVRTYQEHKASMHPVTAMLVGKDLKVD
The data set is described as follows: Inhibition of recombinant human LTA4H expressed in Sf9 cells using LTA4 as substrate incubated for 10 mins prior to substrate addition measured after 10 to 30 mins by enzyme immunoassay.

The target of data set [2] is T2, Leukotriene A-4 hydrolase (Mus musculus, UniProt P24527).
T2 sequence (P24527 whole entry): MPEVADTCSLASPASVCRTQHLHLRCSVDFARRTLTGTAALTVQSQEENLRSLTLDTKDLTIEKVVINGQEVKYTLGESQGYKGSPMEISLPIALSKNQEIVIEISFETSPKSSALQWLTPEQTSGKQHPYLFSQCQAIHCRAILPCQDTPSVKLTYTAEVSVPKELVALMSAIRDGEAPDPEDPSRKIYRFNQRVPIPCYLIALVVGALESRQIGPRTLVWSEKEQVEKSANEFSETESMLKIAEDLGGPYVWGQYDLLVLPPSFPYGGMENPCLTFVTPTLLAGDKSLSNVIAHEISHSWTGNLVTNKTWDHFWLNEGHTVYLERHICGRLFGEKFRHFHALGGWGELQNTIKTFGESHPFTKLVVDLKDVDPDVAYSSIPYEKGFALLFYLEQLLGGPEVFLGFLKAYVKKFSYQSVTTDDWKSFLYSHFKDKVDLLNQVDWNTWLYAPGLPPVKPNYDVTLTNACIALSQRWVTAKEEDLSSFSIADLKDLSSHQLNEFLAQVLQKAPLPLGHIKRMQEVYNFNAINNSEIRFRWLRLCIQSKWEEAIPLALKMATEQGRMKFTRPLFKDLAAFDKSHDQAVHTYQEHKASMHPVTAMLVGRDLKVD
Description: Inhibition of LTA4H in CD1 mouse whole blood assessed as decrease in calcium ionophore-stimulated LTB4 production incubated for 15 mins prior to calcium ionophore challenge measured after 10 to 30 mins by enzyme immunoassay.

Data set [3] in a line: Oral bioavailability in Sprague-Dawley rat at 10 mg/kg. It counts as ADME, organism-based. The following applies: in vivo.
Data set [4] concerns Mus musculus. The data set is described as follows: Inhibition of LTA4H in po dosed Balb/c mouse assessed as concentration required to decrease calcium ionophore-stimulated LTB4 production in blood administered for 4 hrs prior to calcium ionophore challenge measured after 10 to 30 mins by enzyme immunoassay. Type of data set: functional, organism-based.
Data set [5] in a line: Volume of distribution at steady state in Sprague-Dawley rat at 3 mg/kg, iv and 10 mg/kg, po. It counts as ADME, organism-based. The following applies: in vivo, read-out: Vdss.
The target of data set [6] is T1, Leukotriene A-4 hydrolase. The data set is described as follows: Inhibition of LTA4H in human whole blood assessed as decrease in LTB4 production.
The nature of data set [7]: Half life in Sprague-Dawley rat at 3 mg/kg, iv and 10 mg/kg, po. Type of data set: ADME, organism-based. The following applies: in vivo.
Data set [8] in a line: Clearance in Sprague-Dawley rat at 3 mg/kg, iv and 10 mg/kg, po. It counts as ADME, organism-based. The following applies: in vivo.
Data set [9] relates to Mus musculus. The data set is described as follows: Inhibition of LTA4H in po dosed Balb/c mouse assessed as decrease in calcium ionophore-stimulated LTB4 production in blood administered for 4 hrs prior to calcium ionophore challenge measured after 10 to 30 mins by enzyme immunoassay. It counts as functional.

As for `CC(=O)NC1CCN(Cc2coc3cc(Oc4nc5ccccc5s4)ccc23)CC1`, the 50% inhibitory concentration (IC50) (as a rule, the concentration that inhibits the measured activity by half) in data set [1] worked out at 26 nM; in data set [2], 100 nM.

Regarding `CC(=O)N1C[C@@H]2C[C@H]1CN2Cc1coc2cc(Oc3nc4ncccc4s3)ccc12`, the values for the 50% inhibitory concentration (IC50) in [1] and in data set [2] were 7.3 nM and 21 nM, respectively.

For the molecule `CC(=O)N1CC2CC1CN2Cc1coc2cc(Oc3nc4cccnc4s3)ccc12` (centres undefined), the IC50 in [1] was 300 nM.

`O=C(O)C1CCN(Cc2coc3cc(Oc4nc5ncccc5s4)ccc23)CC1`: the half-maximal inhibitory concentration (IC50) was 8.3 nM in [1] and 280 nM in data set [2].

Regarding `c1ccc2sc(Oc3ccc4c(CN5CCCCC5)coc4c3)nc2c1`, the half-maximal inhibitory concentration (IC50) in data set [1] came to 67 nM; in [2], 420 nM.

With `CC(=O)N1CC2CC1CN2Cc1cc2ccc(Oc3nc4cnccc4s3)cc2o1` (centres undefined), the IC50 in data set [1] amounted to 2370 nM.

As for `CC(=O)N1CC2CC1CN2Cc1cc2cc(Oc3nc4cccnc4s3)ccc2o1` (centres undefined), the IC50 in data set [1] amounted to 340 nM.

As for `O=C1CCCN1C1CCN(Cc2coc3cc(Oc4nc5ncccc5s4)ccc23)CC1`, in data set [3], the bioavailability (commonly dose-corrected exposure relative to a reference, in per cent) worked out at 61%. The EC50 (in general, the concentration giving half of the maximal effect) in the data set with Mus musculus [4] was 3 nM. The figures for the half-inhibitory concentration (IC50) in [2] and in [6] were 21 nM and 61 nM, respectively. Also, the Vd in data set [5] is 1.6 L/kg. Also, the half-life (in general, the time in which the quantity being followed falls by half) in data set [7] was 2.5 h. In data set [8], this molecule had a clearance of 11.7 mL/min/kg. Also, the ED50 (commonly the midpoint of the dose-response relation) in the data set with Mus musculus [9] turned out to be 0.3 mg/kg. Moreover, the inhibition entry in the data set on Mus musculus [9] is “Dose-dependent effect”.

Regarding `CC(=O)N1CC2CC1CN2Cc1cc2ccc(Oc3nc4cccnc4s3)cc2o1` (centres undefined), the IC50 in data set [1] turned out to be 2130 nM.

On to `c1cnc2nc(Oc3ccc4cc(CN5CCCCC5)oc4c3)sc2c1`, for which the IC50 in data set [1] came out at 51 nM; in [2] it was 140 nM.

On to `c1cnc2nc(Oc3ccc4c(CN5CCOCC5)coc4c3)sc2c1`, for which the IC50 in data set [1] stood at 25 nM; in data set [2], 49 nM.

As to `c1ccc2sc(Oc3ccc4c(CN5CCOCC5)coc4c3)nc2c1`, the half-inhibitory concentration (IC50) in data set [1] was 140 nM; in data set [2], 1120 nM.

For `O=C1CCCN1C1CCN(Cc2coc3cc(Oc4nc5ccccc5s4)ccc23)CC1`, the half-inhibitory concentration (IC50) in data set [1] was found to be 58 nM; in data set [2] it was 230 nM.

For the molecule `CC(=O)N1C[C@@H]2C[C@H]1CN2Cc1coc2cc(Oc3nc4ccccc4s3)ccc12`, the values for the IC50 in data set [1] and in data set [2] were 34 nM and 250 nM, respectively.

Regarding `CC(=O)N[C@H]1C[C@H]2CC[C@@H](C1)N2Cc1coc2cc(Oc3nc4ncccc4s3)ccc12`, the IC50 in data set [1] came out at 1.6 nM; in data set [2], 9.8 nM.

As for `CC(=O)N1CC2CC1CN2Cc1coc2cc(Oc3nc4cnccc4s3)ccc12` (centres undefined), in data set [1], the 50% inhibitory concentration (IC50) was determined as 340 nM.

In the case of `c1cnc2nc(Oc3ccc4oc(CN5CCCCC5)cc4c3)sc2c1`, the half-maximal inhibitory concentration (IC50) in [1] came to 66 nM; in [2], 91 nM.

With `CC(=O)N1CC2CC1CN2Cc1coc2cc(Oc3nc4ncccc4s3)ccc12` (centres undefined), the half-maximal inhibitory concentration (IC50) in data set [1] amounted to 7.3 nM; in data set [2], 21 nM.

Take `CC(=O)N[C@H]1C[C@H]2CC[C@@H](C1)N2Cc1coc2cc(Oc3nc4ccccc4s3)ccc12`: the IC50 is 7.3 nM in data set [1] and 69 nM in data set [2].

`c1ccc2sc(Oc3ccc4oc(CN5CCCCC5)cc4c3)nc2c1`: the IC50 in data set [1] amounted to 330 nM.

As for `O=C1CCCN1C1CCN(CCOc2ccc(Oc3nc4ccccc4s3)cc2)CC1`, the bioavailability in [3] was found to be 29%. Besides, the EC50 with Mus musculus [4] was 72 nM. In data set [5], the Vd worked out at 1.1 L/kg. For the same molecule, the half-life in [7] is 0.9 h. Also, the clearance in data set [8] was 8.33 mL/min/kg. For the same molecule, the median effective dose (ED50) in the data set on Mus musculus [9] was 10 mg/kg.

As for `CC(=O)N1CC2CC1CN2Cc1cc2cc(Oc3nc4cnccc4s3)ccc2o1` (centres undefined), the IC50 in [1] is 340 nM.

For `CC(=O)N1CC2CC1CN2Cc1cc2cc(Oc3nc4ncccc4s3)ccc2o1` (centres undefined), the concentration for half-maximal inhibition (IC50) in [1] stood at 7 nM; in data set [2], 27 nM.

For `CC(=O)NC1CCN(Cc2coc3cc(Oc4nc5ncccc5s4)ccc23)CC1`, the 50% inhibitory concentration (IC50) in data set [1] is 3.7 nM; in [2], 17 nM.

For the molecule `O=C(O)C1CCN(Cc2coc3cc(Oc4nc5ccccc5s4)ccc23)CC1`, the IC50 in data set [1] is 14 nM; in data set [2], 19 nM.

Consider `CC(=O)N1CC2CC1CN2Cc1cc2ccc(Oc3nc4ncccc4s3)cc2o1` (centres undefined), for which the results for the IC50 in data set [1] and in [2] were 62 nM and 210 nM, respectively.

As to `c1cnc2nc(Oc3ccc4c(CN5CCCCC5)coc4c3)sc2c1`, the IC50 was found to be 4.6 nM in [1] and 21 nM in data set [2].

As to `c1ccc2sc(Oc3ccc4cc(CN5CCCCC5)oc4c3)nc2c1`, the IC50 in data set [1] is 430 nM.
